Source: patent US12539292B2, “BRM targeting compounds and associated methods of use” (Arvinas Operations, Inc., priority 2018, dated 2026)

Molecular target: T1, BRM (Homo sapiens, UniProt P51531)
T1 construct: In-Cell Western Screen of BRM Degradation in SW1573 Cells; endogenous in cells; host or cells: SW1573
Assay: In-cell Western screen of BRM degradation in SW1573 cells (Dmax and DC50)
Type: cell-based
Conditions: BRM degradation, SW1573 cells; for DC50: read-out: DC50; for Dmax: read-out: Dmax (% degraded)
Outline: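 BRM levels were read by LI-COR in-cell Western after two-channel (800/680 nm) immunostaining of fixed, Triton-permeabilised SW1573 cells.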

T1 sequence (P51531 whole entry): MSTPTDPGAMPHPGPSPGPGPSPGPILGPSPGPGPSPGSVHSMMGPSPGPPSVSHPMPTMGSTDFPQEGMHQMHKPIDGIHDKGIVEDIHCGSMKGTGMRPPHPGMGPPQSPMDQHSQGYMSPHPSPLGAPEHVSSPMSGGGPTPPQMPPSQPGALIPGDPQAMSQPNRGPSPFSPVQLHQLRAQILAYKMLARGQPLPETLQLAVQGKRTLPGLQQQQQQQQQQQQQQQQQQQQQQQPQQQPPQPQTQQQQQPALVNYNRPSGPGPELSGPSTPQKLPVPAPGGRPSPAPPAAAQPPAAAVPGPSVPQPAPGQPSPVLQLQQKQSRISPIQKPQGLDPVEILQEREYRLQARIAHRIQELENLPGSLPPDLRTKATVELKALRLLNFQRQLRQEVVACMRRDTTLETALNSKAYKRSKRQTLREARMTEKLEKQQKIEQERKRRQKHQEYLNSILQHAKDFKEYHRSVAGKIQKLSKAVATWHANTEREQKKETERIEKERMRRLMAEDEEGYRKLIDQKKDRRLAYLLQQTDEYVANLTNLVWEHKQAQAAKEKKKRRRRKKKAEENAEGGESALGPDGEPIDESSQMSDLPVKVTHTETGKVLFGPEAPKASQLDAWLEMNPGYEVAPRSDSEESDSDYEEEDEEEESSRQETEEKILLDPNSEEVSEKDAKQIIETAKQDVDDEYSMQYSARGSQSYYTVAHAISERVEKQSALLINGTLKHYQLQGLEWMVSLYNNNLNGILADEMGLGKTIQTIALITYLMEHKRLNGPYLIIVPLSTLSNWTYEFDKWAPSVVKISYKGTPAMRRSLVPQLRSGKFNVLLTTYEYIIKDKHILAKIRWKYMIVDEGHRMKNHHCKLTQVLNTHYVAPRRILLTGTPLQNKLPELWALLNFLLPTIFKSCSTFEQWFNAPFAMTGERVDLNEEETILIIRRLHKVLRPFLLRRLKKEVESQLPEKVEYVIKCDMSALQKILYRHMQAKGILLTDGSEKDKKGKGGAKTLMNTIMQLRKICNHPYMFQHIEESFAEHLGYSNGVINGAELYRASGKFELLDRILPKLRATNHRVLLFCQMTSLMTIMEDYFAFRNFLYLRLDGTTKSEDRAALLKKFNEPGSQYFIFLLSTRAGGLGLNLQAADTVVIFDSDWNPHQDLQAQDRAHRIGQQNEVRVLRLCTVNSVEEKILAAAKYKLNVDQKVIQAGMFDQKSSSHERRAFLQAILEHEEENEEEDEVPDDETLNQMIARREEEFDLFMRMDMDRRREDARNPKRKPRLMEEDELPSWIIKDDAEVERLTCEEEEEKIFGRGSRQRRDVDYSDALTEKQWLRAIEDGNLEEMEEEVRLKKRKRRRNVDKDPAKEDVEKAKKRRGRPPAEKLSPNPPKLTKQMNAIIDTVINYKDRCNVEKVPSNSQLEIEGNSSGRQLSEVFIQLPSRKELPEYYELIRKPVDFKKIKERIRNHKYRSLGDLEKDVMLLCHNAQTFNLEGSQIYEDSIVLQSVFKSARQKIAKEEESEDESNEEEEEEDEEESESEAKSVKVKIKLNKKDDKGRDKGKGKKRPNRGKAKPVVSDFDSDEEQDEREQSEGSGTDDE

Compound	DC50 [µM]	Dmax [%]
Cc1ncsc1-c1c(F)cc([C@H](C)NC(=O)[C@@H]2C[C@@H](O)CN2C(=O)[C@@H](c2cc(N3CCC(CN4CCC(O[C@H]5C[C@H](Oc6cc(N7C8CCC7CN(c7cc(-c9ccccc9O)nnc7N)C8)ccn6)C5)CC4)CC3)no2)C(C)C)cc1F [compound 666, (2S,4R)-1-((2R)-2-(3-(4-((4-((1r,3r)-3-((4-(3-(3-amino-6-(2-hydroxyphenyl)pyridazin-4-yl)-3,8-diazabicyclo[3.2.1]octan-8-yl)pyridin-2-yl)oxy)cyclobutoxy)piperidin-1-yl)methyl)piperidin-1-yl)isoxazol-5-y1)-3-methylbutanoyl)-N-((S)-1-(3,5-difluoro-4-(4-methylthiazol-5-yl)phenyl)ethyl)-4-hydroxypyrrolidine-2-carboxamide]	< 0.0025	> 75
COC[C@@H](NC(=O)[C@@H]1C[C@@H](O)CN1C(=O)[C@@H](c1cc(N2CCC(CN3CCC(O[C@H]4C[C@H](Oc5cc(N6C7CCC6CN(c6cc(-c8ccccc8O)nnc6N)C7)ccn5)C4)CC3)CC2)no1)C(C)C)c1ccc(-c2scnc2C)cc1 [compound 667, (2S,4R)-1-((2R)-2-(3-(4-((4-((1r,3r)-3-((4-(3-(3-amino-6-(2-hydroxyphenyl)pyridazin-4-yl)-3,8-diazabicyclo[3.2.1]octan-8-yl)pyridin-2-yl)oxy)cyclobutoxy)piperidin-1-yl)methyl)piperidin-1-yl)isoxazol-5-yl)-3-methylbutanoyl)-4-hydroxy-N-((S)-2-methoxy-1-(4-(4-methylthiazol-5-yl)phenyl)ethyl)pyrrolidine-2-carboxamide]	0.01 to 0.03	> 75
COC[C@H](NC(=O)[C@@H]1C[C@@H](O)CN1C(=O)[C@@H](c1cc(N2CCC(CN3CCC(O[C@H]4C[C@H](Oc5cc(N6C7CCC6CN(c6cc(-c8ccccc8O)nnc6N)C7)ccn5)C4)CC3)CC2)no1)C(C)C)c1ccc(-c2scnc2C)cc1 [compound 668, (2S,4R)-1-((2R)-2-(3-(4-((4-((1r,3r)-3-((4-(3-(3-amino-6-(2-hydroxyphenyl)pyridazin-4-yl)-3,8-diazabicyclo[3.2.1]octan-8-yl)pyridin-2-yl)oxy)cyclobutoxy)piperidin-1-yl)methyl)piperidin-1-yl)isoxazol-5-yl)-3-methylbutanoyl)-4-hydroxy-N-((R)-2-methoxy-1-(4-(4-methylthiazol-5-yl)phenyl)ethyl)pyrrolidine-2-carboxamide]	< 0.0025	> 75
COCC[C@@H](NC(=O)[C@@H]1C[C@@H](O)CN1C(=O)[C@@H](c1cc(N2CCC(CN3CCC(O[C@H]4C[C@H](Oc5cc(N6C7CCC6CN(c6cc(-c8ccccc8O)nnc6N)C7)ccn5)C4)CC3)CC2)no1)C(C)C)c1ccc(-c2scnc2C)cc1 [compound 669, (2S,4R)-1-((2R)-2-(3-(4-((4-((1r,3r)-3-((4-(3-(3-amino-6-(2-hydroxyphenyl)pyridazin-4-yl)-3,8-diazabicyclo[3.2.1]octan-8-yl)pyridin-2-yl)oxy)cyclobutoxy)piperidin-1-yl)methyl)piperidin-1-yl)isoxazol-5-yl)-3-methylbutanoyl)-4-hydroxy-N-((R)-3-methoxy-1-(4-(4-methylthiazol-5-yl)phenyl)propyl)pyrrolidine-2-carboxamide]	0.01 to 0.03	50 to 75
COCC[C@H](NC(=O)[C@@H]1C[C@@H](O)CN1C(=O)[C@@H](c1cc(N2CCC(CN3CCC(O[C@H]4C[C@H](Oc5cc(N6C7CCC6CN(c6cc(-c8ccccc8O)nnc6N)C7)ccn5)C4)CC3)CC2)no1)C(C)C)c1ccc(-c2scnc2C)cc1 [compound 670, (2S,4R)-1-((2R)-2-(3-(4-((4-((1r,3r)-3-((4-(3-(3-amino-6-(2-hydroxyphenyl)pyridazin-4-yl)-3,8-diazabicyclo[3.2.1]octan-8-yl)pyridin-2-yl)oxy)cyclobutoxy)piperidin-1-yl)methyl)piperidin-1-yl)isoxazol-5-yl)-3-methylbutanoyl)-4-hydroxy-N-((S)-3-methoxy-1-(4-(4-methylthiazol-5-yl)phenyl)propyl)pyrrolidine-2-carboxamide]	< 0.0025	> 75
